Measured values published in patent EP0339681B1, “Antitumor antibiotic substance” (MEIJI SEIKA KAISHA LTD., priority 1988, dated 1989).
Converted amounts (≈) assume the structure as drawn.

Experiments:
infection = details: mouse, in vivo; cited from earlier work
P-388 tumor cells = test: Therapeutic test on mice with intraperitoneally transplanted P-388 tumor cells; type: in vivo, mouse; details: intraperitoneally once a day for two days
Description: To evaluate antitumor activity of the test compounds, the following therapeutic test was conducted.
P-388 tumor cells were transplanted into the abdominal cavity of a mouse. A test compound was intraperitoneally administered to the animal once a day for two days. The effect thus observed is expressed in ILS (%). [formula]

[1] = test system: P-388 mouse leukemia cells; test: Cytotoxic effect: 50% growth inhibition of P-388 cells; details: P388, 72 h, read-out: IC₅₀

| Compound | therapeutic effect on infection (infection) | IC50 [1] | also measured |
| --- | --- | --- | --- |
| COC(=O)C1(C)Nc2c(O)cc3c(c2C1=O)C(CO)CN3C(=O)c1cc2cc(OC)c(OC)c(OC)c2[nH]1 (stereo not drawn) | therapeutic effect on infection | – | – |
| COC(=O)C1(C)Nc2c(OS(C)(=O)=O)cc3c(c2C1=O)C(COS(C)(=O)=O)CN3C(=O)c1cc2cc(OC)c(OC)c(OC)c2[nH]1 (stereo not drawn) [Compound 1] | – | 0.06 µg/mL (≈ 0.088 µM) | ILS (%) (P-388 tumor cells; Dose 2.4 mg/kg): 40%; ILS (%) (P-388 tumor cells; Dose 7 mg/kg): 40%; ILS (%) (P-388 tumor cells; Dose 21 mg/kg): 54% |
| COC(=O)C1(C)Nc2c(OS(C)(=O)=O)cc3c(c2C1=O)C(CO)CN3C(=O)c1cc2cc(OC)c(OC)c(OC)c2[nH]1 (stereo not drawn) [Compound 2] | – | 0.004 µg/mL (≈ 0.00663 µM) | ILS (%) (P-388 tumor cells; Dose 0.25 mg/kg): 15%; ILS (%) (P-388 tumor cells; Dose 0.5 mg/kg): 40%; ILS (%) (P-388 tumor cells; Dose 1 mg/kg): 40% |
| COC(=O)C1(C)Nc2c(OS(=O)(=O)c3ccc(C)cc3)cc3c(c2C1=O)C(CO)CN3C(=O)c1cc2cc(OC)c(OC)c(OC)c2[nH]1 (stereo not drawn) [Compound 3] | – | 2.5 µg/mL (≈ 3.68 µM) | – |
| COC(=O)C1(C)Nc2c(O)cc3c(c2C1=O)C(CCl)CN3C(=O)c1cc2cc(OC)c(OC)c(OC)c2[nH]1 (stereo not drawn) [SF2582A] | therapeutic effect on infection | – | – |
| COC(=O)C1(C)Nc2c(O)cc3c(c2C1=O)CC(Cl)CN3C(=O)c1cc2cc(OC)c(OC)c(OC)c2[nH]1 (stereo not drawn) [SF2582B] | therapeutic effect on infection | – | – |
